Data: US20240335395A1, “COMPOSITIONS AND METHODS FOR PREVENTING AND/OR TREATING DISEASE ASSOCIATED WITH IL-23 EXPRESSION” (ALLSPIM, priority 2021, published 2024)

Legend:
[1] = system: MSU-induced leukocyte recruitment; assay: MSU-induced leukocyte recruitment to the synovial cavity of knee joint; format: in vivo, mouse; conditions: 20 h; 2,4-D 100 mg/kg, CLC 1 mg/kg, DEX 0.5 mg/kg
Procedure: 2,4-D, isolated and purified from Chloranthus spicatus (purity≥98%), was purchased from BOC Science (Shirley, NY). Colchicine (CLC) (purity≥96%) and dexamethasone (DEX) (purity≥98%) were purchased from Sigma. Mice (six per group) were treated with 2,4-D (100 mg/kg or 20 mg/kg, i.p.), CLC (1 mg/kg or 0.2 mg/kg, i.p.), DEX (0.5 mg/kg or 0.1 mg/kg, i.p.), or vehicle (20% polyoxyethylenesorbitan monooleate (Tween 80) plus PBS) 30 min before intra-articular stimulus with MSU (100 μg/10 μL, i.a.). Six mice with intra-articular injection with PBS alone served as a negative control.
(§1) Induction of MSU-Induced Knee Joint Inflammation. Male ICR (CD-1) mice (35-45 g, 10-12 weeks) were purchased from VitalRiver Inc (Beijing, China) and were kept in an animal care facility under controlled temperature of 21±1° C., humidity, and on a light/dark cycle, with ad libitum access to water and standard laboratory chow diet. Animal care and handling procedures were approved by the Animal Ethics Committee of GZUCM (Guangzhou University of Chinese Medicine). All efforts were made to minimize animal suffering and to reduce the number of animals used. Joint inflammation was induced by the intra-articular (i.a.) administration of MSU (200 μg/20 μl) into the right and left knee joints of mice under inhaled 3% isoflurane anesthesia. Control animals received an injection (i.a.) of sterile PBS (20 μL).
Histopathological Analysis. Knee joint was collected 20 h after MSU injection, fixed with 10% paraformaldehyde in PBS, and then decalcified for 10 days with EDTA and embedded in paraffin for histological analysis. […] Results are expressed as leukocytes infiltrate (cell/field) counted at the inflammatory foci within synovial cavity as indicative of synovitis. […]
Statistical Analysis. Data were analyzed using GraphPad Prism statistical software (GraphPad Software, Inc., United States-500.288, version 5.0). Results are presented as means±SEM or SD of measurements made on 6 mice per group, with statistical significance determined by two-way ANOVA, comparing each group to the control (“Model”) group. […]

IL-6 = assay: MSU-induced IL-6 in knee joint tissue (multiplex microassay); format: in vivo, mouse; conditions: 2,4-D 100 mg/kg, CLC 1 mg/kg, DEX 0.5 mg/kg
Procedure: Mice (six per group) were treated with 2,4-D (100 mg/kg or 20 mg/kg, i.p.), CLC (1 mg/kg or 0.2 mg/kg, i.p.), DEX (0.5 mg/kg or 0.1 mg/kg, i.p.), or vehicle (20% polyoxyethylenesorbitan monooleate (Tween 80) plus PBS) 30 min before intra-articular stimulus with MSU (100 μg/10 μL, i.a.). Six mice with intra-articular injection with PBS alone served as a negative control.
as §1
Cytokine Measurement. Mice were anesthetized and sacrificed. Knee joints were collected and frozen in liquid nitrogen. Samples were then homogenized in 500 μl of buffer containing protease inhibitors, centrifuged (3600 rpm, 4° C., 15 min) and supernatants were used to determine Th1/Th2/Th17 cytokine levels using a multiplex microassay (Qantibody® mouse TH17 Array 1 kit, Cat. No.: QAM-TH17-1; RayBiotech, Norcross, GA). Results were expressed as picograms (pg) of cytokine/mg of tissue.
Statistical Analysis. […] For in vitro experiments, microassays were performed in quadruplicate. p<0.05 was considered significant (*p<0.05, **p<0.01, ***p<0.001).

[2] = system: laser-induced choroidal neovascularization (CNV); assay: Laser-induced CNV in rats, fluorescein angiography leakage grading; format: in vivo, rat; conditions: 14 days, intravitreous injection
Procedure: Animals. All experiments were performed in accordance with the European Communities Council Directive 86/609/EEC and approved by local ethical committees (#2541-2015110210279792 v3). Six- to eight-week-old male Long Evans rats from the Janvier Breeding Center (Le Genest-Saint-Isle, France) were used to create a rat model of choroidal neovascularization (CNV) used as a model of human wet macular degeneration.
Laser-induced CNV. After anesthesia and dilation of the pupils, coverslips were positioned on the cornea as a contact glass. For rats, six or eight burns were performed 2 to 3 optic disc diameters away from the optic nerve with an Argon laser (532 nm) mounted on a slit lamp (175 mW, 0.1 s and 50 μm). Both eyes of animals received laser induction. The presence of a bubble witnessed the rupture of Bruch's membrane and confirmed a successful laser impact.
Treatments. After laser photocoagulation, rats were divided into 3 treatment groups: —Intravitreous injection (IVT) of 2,4-D (identified as “new treatment”, New T), —IVT of vehicle (PBS), —IVT of triamcinolone acetonide (Kenacort® 40 mg/ml; TA) (n=12 rats per group). The IVT consisted of 5 μl injected with a 31G needle mounted on a micro-thin (100 μl) syringe posterior to the limbus, avoiding the lens. IVT was performed immediately after laser had been performed. Animals were sacrificed at 7 days (n=6 per group- and at 16 days (n=6 per group).
Fluorescein angiography (FA). FA was performed 14 days after laser induction. […] Early and late phase angiograms were recorded 1-3 and 5-7 min respectively after fluorescein injection. […] Angiographic scores were established by 2 blinded observers according to the following criteria: grade 0, no hyper-fluorescence; grade 1, slight hyper-fluorescence with no increase in intensity nor in size; grade 2, hyper-fluorescence increasing in intensity but not in size; grade 3, hyper-fluorescence increasing both in intensity and size; grade 4, hyper-fluorescence size increase more than 2-diameter of the initial laser burn.

Structure (SMILES): COc1cc(O)c(OC)c(O)c1C(=O)/C=C/c1ccccc1 [2,4-D, 2′,4′-dihydroxy-3′,6′-dimethoxychalcone]
- reduction of MSU-induced leukocyte recruitment [1]: 4.5 fold
- decrease of IL-6 in knee joint tissue (IL-6): 7.6 fold
- percentage of impact graded 0-1 [2]: 68%
- percentage of impact in grade 3-4 (intense leakage) [2]: 13%
- grading score of impacts compared to vehicle ([2]; Dunn's multiple comparison): significantly reduced
